From US12077495B2 (priority 2018, dated 2024) come the findings set out here.

One assay addresses T1, GABAB receptor (Rattus norvegicus, UniProt Q9Z0U4).
T1 construct: using crude synaptic membranes prepared from rat cortex; from tissue; host or cells: rat cortex, crude synaptic membranes
In words: 3H-GABA binding assay for GABAB, rat cortex membranes. Particulars: up to concentrations of 1 mM. On the procedure: Following incubation by rapid filtration through GF/C unifilters (PerkinElmer, Boston, MA, USA), using a 96-well Packard cell-harvester (PerkinElmer) and three fast washes with ice-cold binding buffer, microscint scintillation fluid (PerkinElmer) was added to the dried filters, and the amount of filter-bound radioactivity was quantified in a Packard TopCount microplate scintillation counter (PerkinElmer). […] The binding reactions were terminated by rapid filtration through GF/C filters (Whatman), soaked in 0.1% polyethylene imine, using a Brandell 48-well harvester and rapid washing with ice-cold binding buffer. […] Data are presented as % specific binding (of control), and IC50 or Ki values calculated by means of non-linear regression curve-fitting and the Cheng-Prusoff equation, respectively.

Assay [1] concerns the target T2, CAMK2A pThr286 autophosphorylation (Mus musculus, UniProt P11798).
T2 construct: cortical tissue isolated from mice subjected to photothrombotic injury; from tissue; host or cells: mouse cortex (infarct core), C57BL/6J, after in vivo dosing
In words: pThr286 autophosphorylation in dissected mouse cortex after photothrombosis (Western blot). Type of assay: in vivo, mice. Particulars: 175 mg/kg i.p.; cortex tissue; pThr286 normalized to total CAMK2A. On the procedure: Along with the standard protocol for photothrombotic focal ischemia, mice were treated with either saline or 175 mg/kg A (i.p.) 30 min after the injury. Three hours after the injury, mice were sacrificed, brains were dissected out and immediately submerged in ice-cold PBS supplemented with 1% phosphatase and protease inhibitors (Phosphatase inhibitor cocktail 3 #P0044 (Sigma), Phosphatase inhibitor cocktail 2 #P5726 (Sigma) and complete EDTA protease inhibitors (Roche) for 5 min. Cortex tissue from the infarct core region (i.e. 1.5 mm right of bregma including the primary motor cortex with a diameter of 2 mm) was dissected and snap-frozen on dry ice. Tissue homogenization was performed using 1×RIPA buffer supplemented with phosphatase and protease inhibitors and a Bullet Blender. Autophosphorylation was assessed by Western blot analysis, comparing the total level of CAMK2A (quantified using anti-CAMK2A, #NB100-1983, Novus Biologicals) to the level of phosphorylated CAMK2A (pThr286: #12716S, Cell Signalling Technology; goat anti-rabbit HRP: #PI-1000 X0126, Vector). […]
To this end, sham mice or mice were treated with either saline or 175 mg/kg A (i.p.) 3 hrs after the injury. […] Autophosphorylation was assessed by Western blot analysis and levels of pThr286 CAMK2A normalized to total CAMK2A to detect changes in autophosphorylation.

Another assay concerns the target T3, CAMK2A (Rattus norvegicus, UniProt P11275).
T3 construct: host or cells: HEK293T
The assay is described as follows: biochemical. In kind it is binding. Particulars: whole cell lysates of CAMK2A-transfected HEK293T cells. Here is the method:
Cells were transfected with rat CAMK2A (Origene construct RR201121) or rat CAMK2B (Origene construct RR200520) using PolyFect (Qiagen, West Sussex, UK) according to the manufacturer's protocol. Whole cell homogenates were prepared 48 hr post-transfection by washing the cells with ice-cold 1×PBS and harvesting by scraping. Cells were collected and centrifuged for 10 min at 1000×g. Cell pellets were resuspended in ice-cold 1×PBS and homogenized using 2×1 mm zirkonium beads in a bullet blender for 20 s at max speed (NextAdvance, NY, USA). Homogenates were cleared by centrifugation (10 min, 4° C., 14.000×g). Protein concentration was determined using the Bradford protein assay. 150-200 μg protein was incubated with 5 nM ^3H-A and test compound in 1 ml total volume for 1 hr at 0-4° C. […] Proteins were then precipitated by addition of ice-cold acetone (4× of the assay volume), vortexing and incubation at −20° C. for 1 hr. Proteins were filtrated rapidly through GF/C unifilters (Whatman) and washed. The dried filters were added scintillation liquid and radioactivity measured on a Tricarb 2100 Scintillation counter (Packard).
A) Principle of photoaffinity labelling workflow. […] After introduction of biotin through a Staudinger-Bertozzi ligation to EZ-Link™ Phosphine-PEG3-Biotin (ThermoFisher Scientific), the biotin-labelled proteins were affinity-purified and subjected to LC-MS/MS analysis. […] C)^3H-A binding to cortical membranes from CAMK2A and CAMK2B knock-out mouse brains.
Human/rat CAMK2A expressed in HEK cells was assayed in an in-house established ^3H-A filtration binding assay performed on whole cell lysates of CAMK2A-transfected HEK293T cells.

For orientation: Ki means the dissociation constant of the complex between target and ligand, obtained from inhibition or displacement. A higher Ki goes with weaker binding.

T1 sequence (Q9Z0U4 17-960 limits assumed): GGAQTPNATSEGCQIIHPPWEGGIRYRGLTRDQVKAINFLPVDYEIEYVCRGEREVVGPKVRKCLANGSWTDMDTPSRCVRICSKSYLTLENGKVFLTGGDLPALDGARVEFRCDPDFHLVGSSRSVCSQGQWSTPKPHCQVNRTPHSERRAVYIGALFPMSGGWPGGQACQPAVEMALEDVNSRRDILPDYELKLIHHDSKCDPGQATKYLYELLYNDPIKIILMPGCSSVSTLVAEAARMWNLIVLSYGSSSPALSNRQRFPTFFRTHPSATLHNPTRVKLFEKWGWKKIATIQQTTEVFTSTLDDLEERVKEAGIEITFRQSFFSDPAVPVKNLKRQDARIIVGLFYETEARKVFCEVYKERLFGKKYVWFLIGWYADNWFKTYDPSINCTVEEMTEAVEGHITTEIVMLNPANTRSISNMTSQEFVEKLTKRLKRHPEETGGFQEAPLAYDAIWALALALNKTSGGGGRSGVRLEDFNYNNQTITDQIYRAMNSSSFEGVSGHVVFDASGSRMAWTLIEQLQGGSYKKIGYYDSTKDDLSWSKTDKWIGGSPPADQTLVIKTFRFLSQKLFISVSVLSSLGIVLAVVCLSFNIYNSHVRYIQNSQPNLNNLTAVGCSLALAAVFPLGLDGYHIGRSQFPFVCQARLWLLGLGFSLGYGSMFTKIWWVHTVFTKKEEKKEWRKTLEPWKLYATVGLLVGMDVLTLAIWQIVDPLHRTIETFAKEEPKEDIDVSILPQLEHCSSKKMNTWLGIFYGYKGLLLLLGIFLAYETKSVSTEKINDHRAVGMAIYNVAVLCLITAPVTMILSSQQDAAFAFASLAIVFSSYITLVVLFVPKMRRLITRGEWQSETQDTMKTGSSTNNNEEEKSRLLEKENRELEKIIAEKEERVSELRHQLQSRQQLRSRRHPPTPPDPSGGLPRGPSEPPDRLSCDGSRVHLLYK
T1 sequence (O88871 41-940 partner): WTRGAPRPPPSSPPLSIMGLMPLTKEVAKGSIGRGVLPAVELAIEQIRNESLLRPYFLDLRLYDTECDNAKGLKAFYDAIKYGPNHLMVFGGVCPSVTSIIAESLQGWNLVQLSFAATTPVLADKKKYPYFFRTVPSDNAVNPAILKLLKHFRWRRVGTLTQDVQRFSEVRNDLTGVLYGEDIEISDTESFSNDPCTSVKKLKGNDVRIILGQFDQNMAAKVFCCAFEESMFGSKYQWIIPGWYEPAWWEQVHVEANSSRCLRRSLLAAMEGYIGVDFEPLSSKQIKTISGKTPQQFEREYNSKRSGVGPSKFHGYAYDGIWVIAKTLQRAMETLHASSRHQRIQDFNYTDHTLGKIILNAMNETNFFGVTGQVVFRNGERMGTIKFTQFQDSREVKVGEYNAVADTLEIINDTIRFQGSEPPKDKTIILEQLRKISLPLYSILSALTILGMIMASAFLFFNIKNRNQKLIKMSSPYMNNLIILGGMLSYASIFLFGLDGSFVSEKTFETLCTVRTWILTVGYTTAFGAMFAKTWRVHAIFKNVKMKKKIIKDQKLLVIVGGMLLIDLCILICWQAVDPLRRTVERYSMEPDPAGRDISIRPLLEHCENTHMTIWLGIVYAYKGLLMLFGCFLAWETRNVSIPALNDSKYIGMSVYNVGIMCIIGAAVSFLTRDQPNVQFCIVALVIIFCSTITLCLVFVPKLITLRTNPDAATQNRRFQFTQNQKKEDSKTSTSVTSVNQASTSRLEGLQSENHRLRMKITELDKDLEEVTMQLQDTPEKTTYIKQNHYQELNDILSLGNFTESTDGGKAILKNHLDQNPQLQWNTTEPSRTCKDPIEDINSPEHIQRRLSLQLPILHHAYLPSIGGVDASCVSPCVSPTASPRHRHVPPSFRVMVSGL
T3 sequence (P11275 whole entry): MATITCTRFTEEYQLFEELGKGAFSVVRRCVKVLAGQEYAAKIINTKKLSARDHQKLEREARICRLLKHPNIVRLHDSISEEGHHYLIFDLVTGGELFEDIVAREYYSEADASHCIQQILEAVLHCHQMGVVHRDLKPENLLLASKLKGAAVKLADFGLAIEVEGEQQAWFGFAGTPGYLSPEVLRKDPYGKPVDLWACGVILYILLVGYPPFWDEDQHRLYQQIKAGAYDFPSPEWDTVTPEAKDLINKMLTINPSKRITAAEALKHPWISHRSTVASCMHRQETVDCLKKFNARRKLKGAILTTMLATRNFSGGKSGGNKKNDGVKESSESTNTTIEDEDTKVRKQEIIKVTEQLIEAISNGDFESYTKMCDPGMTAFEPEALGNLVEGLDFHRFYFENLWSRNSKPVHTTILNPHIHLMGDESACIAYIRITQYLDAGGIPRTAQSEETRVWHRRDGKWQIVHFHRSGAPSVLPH
T2 sequence (P11798 whole entry): as the sequence (P11275 whole entry) above

For the compound `O=C(O)C1=CC(O)CC1` (stereo not drawn) [Compound A, 3-hydroxycyclopent-1-enecarboxylic acid], the “inhibition of 3H-GABA binding to GABAB receptor” value on GABAB receptor is given as “no ability to compete”. For the same compound, the “decrease in pThr286 autophosphorylation” value in assay [1] worked out at 73%. Also, on CAMK2A, the Ki amounted to 1950 nM.
